According to paper PMC11245036 (bioRxiv, 2024):
Blank lines part the entries; values can stand above or below the compound they belong to.

How the values were obtained:
GluA1 = GluA1 (Rattus norvegicus, UniProt P19490); experiment: whole-cell patch clamp in HEK-293 cells, -60 mV; assay type: cell-based
GluA2(E) = GluA2(E) (Rattus norvegicus, UniProt P19491, Q607E); experiment: whole-cell patch clamp in HEK-293 cells, -60 mV; assay type: cell-based
GluA2(Q) [1] = target: T1, GluA2(Q) (Rattus norvegicus, UniProt P19491); experiment: cryo-EM structure with glutamate and CTZ; assay type: cell-based
GluA2(Q) [2] = target: T1, GluA2(Q); experiment: cryo-EM structure; assay type: binding
[3] = target: GluA2(Q) subunit, as part of the fusion construct GluA2-γ2EM (rat) (UniProt P19491); experiment: cryo-EM structure

Chain of GluA1 (P19490 19-907): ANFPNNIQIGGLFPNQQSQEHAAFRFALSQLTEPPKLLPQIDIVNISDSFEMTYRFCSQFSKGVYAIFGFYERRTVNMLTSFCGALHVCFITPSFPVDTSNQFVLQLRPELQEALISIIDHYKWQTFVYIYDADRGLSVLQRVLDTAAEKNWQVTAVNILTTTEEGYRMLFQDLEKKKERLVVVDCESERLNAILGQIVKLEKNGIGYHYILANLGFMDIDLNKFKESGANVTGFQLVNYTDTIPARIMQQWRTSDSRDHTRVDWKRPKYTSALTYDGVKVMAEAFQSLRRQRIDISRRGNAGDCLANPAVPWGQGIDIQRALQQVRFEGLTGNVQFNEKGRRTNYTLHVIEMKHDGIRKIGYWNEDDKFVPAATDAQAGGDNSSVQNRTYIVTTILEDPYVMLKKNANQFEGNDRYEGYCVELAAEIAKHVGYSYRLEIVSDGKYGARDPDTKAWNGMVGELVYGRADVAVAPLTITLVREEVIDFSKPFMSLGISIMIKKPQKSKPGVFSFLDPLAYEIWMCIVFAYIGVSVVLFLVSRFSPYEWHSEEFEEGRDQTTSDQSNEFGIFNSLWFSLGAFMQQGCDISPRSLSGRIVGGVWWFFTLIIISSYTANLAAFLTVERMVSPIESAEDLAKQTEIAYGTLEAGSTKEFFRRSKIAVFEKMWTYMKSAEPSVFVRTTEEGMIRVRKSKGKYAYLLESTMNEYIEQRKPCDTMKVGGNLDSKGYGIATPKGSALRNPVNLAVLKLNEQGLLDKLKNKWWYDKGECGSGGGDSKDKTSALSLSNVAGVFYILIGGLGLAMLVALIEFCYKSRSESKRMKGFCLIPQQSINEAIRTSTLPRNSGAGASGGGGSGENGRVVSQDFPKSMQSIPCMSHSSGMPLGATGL

- IC50 (GluA1): 10 ± 2 µM
- IC50 (GluA2(E)): 25 ± 2 µM
- IC50 (GluA2(Q) [1]): 49 ± 2 µM
Compound: CC12CC3CC(C)(C1)CC(N)(C3)C2 [memantine]

Compound: NS(=O)(=O)c1cc2c(cc1Cl)NC(C1CC3C=CC1C3)NS2(=O)=O (centres unmarked) [CTZ]
- cryo-EM structure (GluA2-γ2mem), 100 μM CTZ (GluA2(Q) [2]): Glutamate (yellow), CTZ (purple), and memantine (cyan) are shown as space filling models.

- stoichiometry N [3]: 4
Compound: GluA2(Q) subunit, as part of the fusion construct GluA2-γ2EM (from UniProt P19491-2 22-883) (receptor)
